IC50 data for 40 compounds are collected here from patent publication US20080194574A1, “Pyrazine Derivatives As Effective Compounds Against Infectious Diseases” (AXXIMA PHARMACEUTICALS AG, priority 2003, published 2008).

The target of the test is T1, viral kinase pUL-97 (Human cytomegalovirus, UniProt P16788).
T1 construct: The pUL-97 gene was cloned into a baculovirus vector; GST (glutathione S-transferase) (N); made in house; host or cells: Sf9 insect cells, baculovirus
Kind of test: UL97 kinase assay on Immobilon plate. Type of test: biochemical. Particulars: inhibition of UL 97 kinase activity, read-out: Activity Class [A, B, C]. The method, boiled down:
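Compound was titrated into a radiometric reaction of Sf9-expressed GST-UL97 kinase, incubated 1 h at 30 °C in Tris-HCl pH 7.5/MnCl2/DTT buffer before EDTA stop. MBP substrate and ATP (3 μM in the added assay buffer) were supplied with γ-[33P]ATP. Labelled product bound to Immobilon filter was washed and counted by scintillation.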

Setting [1] is: class by IC50 / % inhibition at 10 μM or 100 μM.
[2] abbreviates: class by IC50 / % inhibition at 10 or 100 μM.

Like-named read-outs stand apart in the source and are kept apart here.

T1 sequence (P16788 whole entry): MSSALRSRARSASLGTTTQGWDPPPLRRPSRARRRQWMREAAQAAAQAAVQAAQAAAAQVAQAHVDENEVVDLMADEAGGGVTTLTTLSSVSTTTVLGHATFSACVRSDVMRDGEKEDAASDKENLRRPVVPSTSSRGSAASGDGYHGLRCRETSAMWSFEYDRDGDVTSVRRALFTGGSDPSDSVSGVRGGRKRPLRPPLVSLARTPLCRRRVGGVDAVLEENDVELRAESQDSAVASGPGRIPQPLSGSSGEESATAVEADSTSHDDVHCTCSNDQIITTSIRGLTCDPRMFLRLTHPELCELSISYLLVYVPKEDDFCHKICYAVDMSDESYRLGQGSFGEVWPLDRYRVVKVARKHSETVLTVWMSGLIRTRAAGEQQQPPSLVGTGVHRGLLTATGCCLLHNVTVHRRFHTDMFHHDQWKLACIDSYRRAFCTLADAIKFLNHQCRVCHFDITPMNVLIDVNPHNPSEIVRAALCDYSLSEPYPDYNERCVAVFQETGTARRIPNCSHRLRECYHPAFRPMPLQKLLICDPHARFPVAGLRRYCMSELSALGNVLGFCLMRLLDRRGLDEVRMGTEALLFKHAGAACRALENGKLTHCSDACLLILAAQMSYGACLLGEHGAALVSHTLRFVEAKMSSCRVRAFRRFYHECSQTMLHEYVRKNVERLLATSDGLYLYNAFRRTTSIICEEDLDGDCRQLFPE

As to `Cc1cccc(-c2cncc(N3CCN(c4cnccn4)CC3)n2)c1` [compound 329, 6-m-Tolyl-2′,3′,5′,6′-tetrahydro-[2,1′;4′,2″]terpyrazine], under setting [1], the IC50 lay within 1 to 10 µM.
Take `COc1ccccc1N1CCN(c2cncc(-c3ccc(C(N)=O)cc3)n2)CC1` [compound 104, 4-[4-(2-Methoxy-phenyl)-3,4,5,6-tetrahydro-2H-[1,2′]bipyrazinyl-6′-yl]-benzamide]: under setting [2], the IC50 was < 1 µM.
For the compound `CN(C)c1ccc(-c2cncc(N3CCN(c4ccc(F)cc4F)CC3)n2)cc1` [compound 208], under setting [1], the IC50 lay within 1 to 10 µM.
For `COc1ccc(-c2cncc(N3CCC(c4ccccc4)CC3)n2)cc1F` [compound 278, 2-(3-Fluoro-4-methoxy-phenyl)-6-(4-phenyl-piperidin-1-yl)-pyrazine], the IC50 under setting [1] was in the range of 10 to 100 µM.
For the compound `CSc1ccccc1-c1cncc(N2CCN(c3ccncc3)CC2)n1` [compound 166, 6′-(2-Methylsulfanyl-phenyl)-4-pyridin-4-yl-3,4,5,6-tetrahydro-2H-[1,2′]bipyrazinyl], the IC50 under setting [2] fell in the range of 10 to 100 µM.
As for `Cc1cc(C)cc(-c2cncc(N3CCN(c4ccc(Cl)c(Cl)c4)CC3)n2)c1` [compound 358, 4-(3,4-Dichloro-phenyl)-6′-(3,5-dimethyl-phenyl)-3,4,5,6-tetrahydro-2H-[1,2′]bipyrazinyl], under setting [1], the IC50 lay in the range of 10 to 100 µM.
`COc1cccc(-c2cncc(N3CCN(c4ccccc4)CC3)n2)c1` [compound 110, 6′-(3-Methoxy-phenyl)-4-phenyl-3,4,5,6-tetrahydro-2H-[1,2′]bipyrazinyl]: the IC50 under setting [2] is 1 to 10 µM.
Consider `COc1ccc(-c2cncc(N3CCN(c4ccc(C(C)=O)cc4)CC3)n2)cc1F` [compound 206, 1-{4-[6′-(3-Fluoro-4-methoxy-phenyl)-2,3,5,6-tetrahydro-[1,2′]bipyrazinyl-4-yl]-phenyl}-ethanone], for which the IC50 under setting [1] lay within 1 to 10 µM.
As for `CC(=O)c1ccc(N2CCN(c3cncc(-c4ccc(F)c(Cl)c4)n3)CC2)cc1` [compound 151], the IC50 under setting [2] was in the range of 10 to 100 µM.
For the compound `OCc1cccc(-c2cncc(N3CCN(CCN4CCCC4)CC3)n2)c1` [compound 63, {3-[4-(2-Pyrrolidin-1-yl-ethyl)-3,4,5,6-tetrahydro-2H-[1,2′]bipyrazinyl-6′-yl]-phenyl}-methanol], the IC50 under setting [2] lay within 10 to 100 µM.
`FC(F)(F)c1cccc(N2CCN(c3cncc(-c4ccccc4Oc4ccccc4)n3)CC2)c1` [compound 217, 6′-(2-Phenoxy-phenyl)-4-(3-trifluoromethyl-phenyl)-3,4,5,6-tetrahydro-2H-[1,2′]bipyrazinyl]: under setting [1], the IC50 is 10 to 100 µM.
With `CC(=O)c1ccc(-c2cncc(N3CCN(c4ccc(C)cc4C)CC3)n2)s1` [compound 289, 1-{5-[4-(2,4-Dimethyl-phenyl)-3,4,5,6-tetrahydro-2H-[1,2′]bipyrazinyl-6′-yl]-thiophen-2-yl}-ethanone], the IC50 under setting [1] is 10 to 100 µM.
For the compound `COc1ccc(N2CCN(c3cncc(-c4cccc5ccccc45)n3)CC2)cc1OC` [compound 43, 4-(3,4-Dimethoxy-phenyl)-6′-naphthalen-1-yl-3,4,5,6-tetrahydro-2H-[1,2′]bipyrazinyl], the IC50 under setting [2] lay within 10 to 100 µM.
Same read-out and setting: the result for `COc1ccccc1N1CCN(c2cncc(-c3ccc(C(F)(F)F)cc3)n2)CC1` [compound 188, 4-(2-Methoxy-phenyl)-6′-(4-trifluoromethyl-phenyl)-3,4,5,6-tetrahydro-2H-[1,2′]bipyrazinyl] reads 10 to 100 µM; that for `COc1ccc(Cl)cc1-c1cncc(N2CCN(c3ccccc3OC)CC2)n1` [compound 91, 6′-(5-Chloro-2-methoxy-phenyl)-4-(2-methoxy-phenyl)-3,4,5,6-tetrahydro-2H-[1,2′]bipyrazinyl], 10 to 100 µM; that for `COc1ccccc1N1CCN(c2cncc(-c3ccsc3)n2)CC1` [compound 85, 4-(2-Methoxy-phenyl)-6′-thiophen-3-yl-3,4,5,6-tetrahydro-2H-[1,2′]bipyrazinyl], 10 to 100 µM.
The same measure, in the same setting: as for `OCc1ccc(-c2cncc(N3CCN(c4cccc5[nH]ccc45)CC3)n2)cc1` [compound 61, {4-[4-(1H-Indol-4-yl)-3,4,5,6-tetrahydro-2H-[1,2′]bipyrazinyl-6′-yl]-phenyl}-methanol], the figure is 10 to 100 µM.
For the compound `OCc1ccc(-c2cncc(N3CCN(c4ccc(F)cc4F)CC3)n2)cc1` [compound 200, {4-[4-(2,4-Difluoro-phenyl)-3,4,5,6-tetrahydro-2H-[1,2′]bipyrazinyl-6′-yl]-phenyl}-methanol], the IC50 under setting [1] was 10 to 100 µM.
Still for that read-out and setting: the result for `Fc1ccc(N2CCN(c3cncc(-c4ccoc4)n3)CC2)cc1` [compound 270, 4-(4-Fluoro-phenyl)-6′-furan-3-yl-3,4,5,6-tetrahydro-2H-[1,2′]bipyrazinyl] reads 10 to 100 µM; that for `Cc1cccc(-c2cncc(N3CCN(c4ccncc4)CC3)n2)c1` [compound 219, 4-Pyridin-4-yl-6′-m-tolyl-3,4,5,6-tetrahydro-2H-[1,2′]bipyrazinyl], 1 to 10 µM.
Turning to `NC(=O)c1cccc(-c2cncc(N3CCN(c4ccncc4)CC3)n2)c1` [Comp. 71, 3-(4-Pyridin-4-yl-3,4,5,6-tetrahydro-2H-[1,2′]bipyrazinyl-6′-yl)-benzamide], the IC50 under setting [2] fell in the range of 1 to 10 µM.
With `FC(F)(F)c1ccc(N2CCN(c3cncc(-c4ccoc4)n3)CC2)cc1` [compound 353, 6′-Furan-3-yl-4-(4-trifluoromethyl-phenyl)-3,4,5,6-tetrahydro-2H-[1,2′]bipyrazinyl], the IC50 under setting [1] lay in the range of 10 to 100 µM.
With `COc1cccc(-c2cncc(N3CCN(c4cccc(Cl)c4)CC3)n2)c1OC` [compound 183, 4-(3-Chloro-phenyl)-6′-(2,3-dimethoxy-phenyl)-3,4,5,6-tetrahydro-2H-[1,2′]bipyrazinyl], the IC50 under setting [2] is 10 to 100 µM.
`c1ccc(Oc2ccc(-c3cncc(N4CCN(c5ccncc5)CC4)n3)cc2)cc1` [compound 163, 6′-(4-Phenoxy-phenyl)-4-pyridin-4-yl-3,4,5,6-tetrahydro-2H-[1,2′]bipyrazinyl]: under setting [2], the IC50 was in the range of 1 to 10 µM.
Regarding `Cc1ccc(-c2cncc(N3CCN(c4ccccc4F)CC3)n2)cc1` [compound 248, 4-(2-Fluoro-phenyl)-6′-p-tolyl-3,4,5,6-tetrahydro-2H-[1,2′]bipyrazinyl], the IC50 under setting [1] is 10 to 100 µM.
With `COc1ccc(N2CCN(c3cncc(-c4ccc(C#N)cc4)n3)CC2)cc1` [compound 293, 4-[4-(4-Methoxy-phenyl)-3,4,5,6-tetrahydro-2H-[1,2′]bipyrazinyl-6′-yl]-benzonitrile], the IC50 under setting [1] was 1 to 10 µM.
For `Fc1ccccc1N1CCN(c2cncc(-c3cc(C(F)(F)F)cc(C(F)(F)F)c3)n2)CC1` [compound 196, 6′-(3,5-Bis-trifluoromethyl-phenyl)-4-(2-fluoro-phenyl)-3,4,5,6-tetrahydro-2H-[1,2′]bipyrazinyl], under setting [2], the IC50 fell in the range of 10 to 100 µM.
On to `CC(C)(C)c1ccc(-c2cncc(N3CCN(c4ccccc4)CC3)n2)cc1` [compound 95, 6′-(4-tert-Butyl-phenyl)-4-phenyl-3,4,5,6-tetrahydro-2H-[1,2′]bipyrazinyl], for which the IC50 under setting [2] was 10 to 100 µM.
`NC(=O)c1ccc(-c2cncc(N3CCN(c4ccccc4)CC3)n2)cc1` [Comp. 68, 4-(4-Phenyl-3,4,5,6-tetrahydro-2H-[1,2′]bipyrazinyl-6′-yl)-benzamide]: under setting [2], the IC50 is < 1 µM.
The same measure, in the same setting: the result for `Fc1ccc(-c2cncc(N3CCN(c4ccncc4)CC3)n2)c(F)c1` [compound 46, 6′-(2,4-Difluoro-phenyl)-4-pyridin-4-yl-3,4,5,6-tetrahydro-2H-[1,2′]bipyrazinyl] reads 1 to 10 µM; that for `CCCNc1cncc(-c2ccc(C(N)=O)cc2)n1` [compound 25, 4-(6-Propylamino-pyrazin-2-yl)-benzamide], < 1 µM.
Take `c1coc(CNc2cncc(-c3cc4ccccc4o3)n2)c1` [compound 23, (6-Benzofuran-2-yl-pyrazin-2-yl)-furan-2-ylmethyl-amine]: the IC50 under setting [2] is 10 to 100 µM.
Turning to `Cc1cc(C)cc(-c2cncc(N3CCN(c4ccc(F)cc4F)CC3)n2)c1` [compound 209, 4-(2,4-Difluoro-phenyl)-6′-(3,5-dimethyl-phenyl)-3,4,5,6-tetrahydro-2H-[1,2′]bipyrazinyl], the IC50 under setting [1] was in the range of 10 to 100 µM.
Turning to `COc1ccccc1N1CCN(c2cncc(-c3ccccc3C)n2)CC1` [compound 87, 4-(2-Methoxy-phenyl)-6′-o-tolyl-3,4,5,6-tetrahydro-2H-[1,2′]bipyrazinyl], under setting [2], the IC50 lay within 10 to 100 µM.
On to `Fc1ccccc1N1CCN(c2cncc(-c3ccsc3)n2)CC1` [compound 122, 4-(2-Fluoro-phenyl)-6′-thiophen-3-yl-3,4,5,6-tetrahydro-2H-[1,2′]bipyrazinyl], for which the IC50 under setting [2] lay in the range of 1 to 10 µM.
For `Cc1cc(C)cc(-c2cncc(N3CCN(c4cccc(C)c4C)CC3)n2)c1` [compound 338, 4-(2,3-Dimethyl-phenyl)-6′-(3,5-dimethyl-phenyl)-3,4,5,6-tetrahydro-2H-[1,2′]bipyrazinyl], under setting [1], the IC50 was in the range of 10 to 100 µM.
On the same count and under the same terms, as for `c1ccc(Oc2ccc(-c3cncc(N4CCN(c5ccccn5)CC4)n3)cc2)cc1` [compound 341, 6′-(4-Phenoxy-phenyl)-4-pyridin-2-yl-3,4,5,6-tetrahydro-2H-[1,2′]bipyrazinyl], the figure is 10 to 100 µM.
As to `FC(F)(F)c1ccc(-c2cncc(N3CCN(c4cccc(Cl)c4)CC3)n2)cc1` [compound 184, 4-(3-Chloro-phenyl)-6′-(4-trifluoromethyl-phenyl)-3,4,5,6-tetrahydro-2H-[1,2′]bipyrazinyl], under setting [2], the IC50 was in the range of 10 to 100 µM.
For `Cc1cccc(-c2cncc(N3CCN(c4ccccc4)CC3)n2)c1` [compound 244, 4-Phenyl-6′-m-tolyl-3,4,5,6-tetrahydro-2H-[1,2′]bipyrazinyl], the IC50 under setting [1] was in the range of 10 to 100 µM.
Take `CC(=O)c1ccc(-c2cncc(N3CCN(c4ccccn4)CC3)n2)cc1` [compound 308, 1-[4-(4-Pyridin-2-yl-3,4,5,6-tetrahydro-2H-[1,2′]bipyrazinyl-6′-yl)-phenyl]-ethanone]: under setting [1], the IC50 lay within 1 to 10 µM.
